The values that follow come from paper PMC9950073, “Alleviation of arthritis through prevention of neutrophil extracellular traps by an orally available inhibitor of protein arginine deiminase 4” (Scientific Reports, 2023).

The test system of data set [1] is histone H3 citrullination in human neutrophils. Put plainly: Citrullination assay in human neutrophils (citrullinated H3 ELISA). It counts as cell-based. To be noted: Neutrophil. The source says: All blood samples from healthy donors who participated in this study were obtained after informed consent in accordance with relevant guidelines and regulations given by the ACE Independent ethics committee for Jubilant Biosys Ltd and Office of Clinical Investigations at Boston Children’s Hospital. The ACE Independent ethics committee, Bangalore, approved the use of human whole blood/PBMC/Enriched Subset in Jubilant Biosys Ltd investigations, Drug Controller General of India (DCGI) Reg No. ECR/141/Indt/KA/2013. Briefly, 10 mL K2EDTA vacutainers were used to collect fresh blood from healthy donors (BD vacutainer, Catalog No: BD 367525). A total of 50 ml of blood was taken from a single, healthy human donor. Neutrophils were isolated from human blood using the EasySep Direct Human Neutrophil Isolation Kit, according to the manufacturer's instructions (Stem Cell Technology, Catalog No: 19666). […]
Citrullinated H3 Enzyme linked immunosorbent Assay (ELISA) was performed as per manufacturer’s instructions (Cayman chemicals, Catalog No: 501620). Neutrophils obtained as mentioned above were counted and cell suspension was prepared in complete RPMI media. […] IC50 values were determined by sigmoidal dose–response curve (variable slope) in Graph Pad Prism 5 software.
(An ELISA detects its analyte on a solid surface through an enzyme-linked reagent.)

Data set [2] in a line: Plasma protein binding (equilibrium dialysis). To be noted: pH 7.4, plasma across species, read-out: PPB (% unbound). It counts as in vitro ADME. On the procedure: Plasma protein binding: 10 µM of JBI-589 was mixed with plasma from different species (in sodium phosphate buffer, pH 7.4) was added to the plasma side of the 96-well micro-equilibrium dialysis device and sodium phosphate buffer (pH 7.4) was added to the other half of the device. The device was incubated at 37 ± 1 °C for 14 h with constant shaking. After the incubation time, plasma and buffer were collected from either side, quenched (0.5% formic acid in internal standard (IS) containing ACN), centrifuged and supernatant was used for LC–MS/MS analysis. Percent of unbound compound was calculated as follows: Percent unbound: [peak area ratio in buffer side/dilution factor]/peak area ratio in plasma side × 100; Peak area ratio: compound peak area/internal standard peak area.
On the technique in general: In equilibrium dialysis free small molecules cross a membrane that holds back macromolecules.

A further data set has as its target T1, human recombinant PAD2 (Homo sapiens, UniProt Q9Y2J8).
T1 construct: purchased Cayman Chemicals 10785
Put plainly: PAD2 selectivity biochemical assay measuring ammonia release. To be noted: 10 semi-log concentrations, highest concentration tested 30 µM.

The target of a further data set is T2, CYP2D6 (Homo sapiens, UniProt P10635).
T2 construct: from tissue; host or cells: human liver microsomes
T2 sequence (P10635 whole entry): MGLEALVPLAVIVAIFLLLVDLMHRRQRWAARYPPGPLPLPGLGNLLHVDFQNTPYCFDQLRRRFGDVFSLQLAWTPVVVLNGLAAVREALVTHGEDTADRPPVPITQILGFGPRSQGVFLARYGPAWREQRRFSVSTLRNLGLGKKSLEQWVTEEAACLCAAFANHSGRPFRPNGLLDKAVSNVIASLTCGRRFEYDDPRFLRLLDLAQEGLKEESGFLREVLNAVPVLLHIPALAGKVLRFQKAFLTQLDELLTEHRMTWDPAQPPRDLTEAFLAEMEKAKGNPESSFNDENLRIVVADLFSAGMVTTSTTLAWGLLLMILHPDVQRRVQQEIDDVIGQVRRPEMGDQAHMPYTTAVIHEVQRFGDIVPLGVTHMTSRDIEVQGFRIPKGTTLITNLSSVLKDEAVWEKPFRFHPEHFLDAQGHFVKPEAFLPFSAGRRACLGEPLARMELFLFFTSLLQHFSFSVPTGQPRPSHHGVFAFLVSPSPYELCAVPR
Briefly: CYP inhibition in human liver microsome, CYP2D6. It counts as in vitro ADME. The protocol:
(§1) CYP inhibition: Human liver microsome (0.1–0.5 mg/mL for various CYPs) and appropriate probe substrates (2.5–20 µM) were incubated in potassium phosphate buffer with or without JBI-589 for 5 min at 37 °C. The reaction was initiated by addition of NADPH (1 mM), incubated at 37 °C for 10 min and quenched (0.5% Formic acid in internal standard (IS) containing ACN). Samples were then centrifuged and taken for LC–MS/MS analysis. Percent change in metabolite formation for each substrate under above conditions using formula: Percent inhibition = [1 − (test area ratio/control area ratio)] *100.
A general note: Liver microsomes are vesicles of endoplasmic reticulum, rich in cytochrome P450 enzymes.

A short description of data set [3]: Microsomal stability, HLM. It counts as in vitro ADME, human. To be noted: 1 µM, liver microsomes 0.5 mg/mL; one range given for HLM/MLM/DLM/RLM. On the procedure: Microsomal stability: Liver microsomes (0.5 mg/mL) from different species were incubated with JBI-589 (1 µM) with or without NADPH (1 mM) at 37 °C for 30 min in potassium phosphate buffer (pH 7.4) and then reaction was stopped with quenching solution (0.5% Formic acid in internal standard (IS) containing ACN). Resulting samples were centrifuged and supernatant was taken for LC–MS/MS analysis. Percent metabolism was calculated as follows: % Metabolized: [1 − (test area ratio/control area ratio)] *100.

In the next data set the target is T3, CYP1A2 (Homo sapiens, UniProt P05177).
T3 construct: from tissue; host or cells: human liver microsomes
T3 sequence (P05177 1-516): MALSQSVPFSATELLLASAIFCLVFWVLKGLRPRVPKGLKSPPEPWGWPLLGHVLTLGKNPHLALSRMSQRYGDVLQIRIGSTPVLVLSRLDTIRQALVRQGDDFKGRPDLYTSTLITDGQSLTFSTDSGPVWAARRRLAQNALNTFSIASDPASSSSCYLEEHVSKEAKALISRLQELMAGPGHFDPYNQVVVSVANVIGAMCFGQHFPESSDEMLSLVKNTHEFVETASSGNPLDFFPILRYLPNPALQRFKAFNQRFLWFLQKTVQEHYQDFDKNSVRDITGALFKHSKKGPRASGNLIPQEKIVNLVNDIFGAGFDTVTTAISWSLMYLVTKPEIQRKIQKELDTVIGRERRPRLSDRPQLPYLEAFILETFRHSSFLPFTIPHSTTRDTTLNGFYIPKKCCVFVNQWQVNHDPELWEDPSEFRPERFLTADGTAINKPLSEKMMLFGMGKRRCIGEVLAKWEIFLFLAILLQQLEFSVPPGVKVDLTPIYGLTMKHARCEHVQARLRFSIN
Briefly: CYP inhibition in human liver microsome, CYP1A2. The class given is in vitro ADME. On the procedure:
as §1

Data set [4] concerns collagen induced arthritis. Put plainly: Collagen induced arthritis model in DBA/1 mice. To be noted: Dexamethasone dose not given. It counts as in vivo.
The mark [5] stands for this setting: predicted from % inhibition, text says major CYPs tested.
[6] abbreviates: JBI-589 50 mg/kg po BID, Etanercept 25 mg/kg IP day 31–45.

T1 sequence (Q9Y2J8 whole entry): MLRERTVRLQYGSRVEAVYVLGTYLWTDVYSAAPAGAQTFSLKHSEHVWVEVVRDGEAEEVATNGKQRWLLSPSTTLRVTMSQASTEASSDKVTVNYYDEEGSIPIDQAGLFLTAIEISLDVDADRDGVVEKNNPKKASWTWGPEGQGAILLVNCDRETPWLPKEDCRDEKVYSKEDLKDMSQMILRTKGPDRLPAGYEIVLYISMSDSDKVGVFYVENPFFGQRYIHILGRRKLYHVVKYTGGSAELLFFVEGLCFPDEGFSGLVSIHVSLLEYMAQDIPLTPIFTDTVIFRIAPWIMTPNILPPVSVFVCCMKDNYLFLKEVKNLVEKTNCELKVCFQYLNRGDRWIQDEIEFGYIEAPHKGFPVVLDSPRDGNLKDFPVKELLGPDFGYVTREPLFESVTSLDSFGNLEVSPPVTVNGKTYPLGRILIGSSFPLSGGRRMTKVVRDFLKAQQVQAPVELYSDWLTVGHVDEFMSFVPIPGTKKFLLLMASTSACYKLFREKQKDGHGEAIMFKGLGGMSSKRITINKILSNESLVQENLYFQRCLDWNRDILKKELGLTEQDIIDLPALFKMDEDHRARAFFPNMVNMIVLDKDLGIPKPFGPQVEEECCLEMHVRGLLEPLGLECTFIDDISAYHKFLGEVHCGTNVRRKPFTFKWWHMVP

For the compound `Cc1c(-c2cc3ccccc3n2Cc2ccc(F)cc2)nc2cc(C(=O)N3CCC[C@@H](N)C3)ccn12` [JBI-589, (R)-(3-aminopiperidin-1-yl)(2-(1-(4-fluorobenzyl)-1H-indol-2-yl)-3-methylimidazo[1,2-a]pyridin-7-yl)methanone], the IC50 in data set [1] (Fig. 1c, human neutrophils, calcium ionophore, x axis μM) was 0.146 µM; at CYP2D6 (setting [5]), above 10000 nM; at CYP1A2 (setting [5]) it was above 10000 nM. Also, the EC50 in data set [1] (human neutrophils induced by 25 µM calcium ionophore, ELISA, read-out: EC50, inhibition of histone H3 citrullination) was 146 nM. The fraction unbound at 14 h, 10 µM in data set [2] is 0.05 to 0.1. The “inhibitory activity against PAD2” value at human recombinant PAD2 is reported as “did not have any inhibitory activity”. The inhibition at 10 min, 10 µM is below 50% on CYP2D6 (human liver microsomes, 10 µM, human liver microsome, read-out: CYP2D6 inhibition (% inh @10 µM)) and below 50% at CYP1A2 (human liver microsomes, 10 µM, human liver microsome, read-out: CYP1A2 inhibition (% inh @10 µM)). In addition, the “HLM % metabolized @ 30 min” value in data set [3] is listed as 25-50%. The clinical score entry in data set [4] (JBI-589 50 mg/kg po BID day 0-45, Etanercept 25 mg/kg IP day 31–45) was “significantly decreased”. The “bone erosion (histopathology)” value in data set [4] (setting [6]) is “significantly decreased”. In addition, in data set [4] (setting [6]), the “joint inflammation (histopathology)” value is recorded as “significantly decreased”. In addition, in data set [4] (setting [6]), the “pannus formation (histopathology)” value was “significantly decreased”. Further, the spleen weight result in data set [4] (day 45, JBI-589 50 mg/kg po BID) is recorded as “no adverse effect”. The body weight entry in data set [4] (end of study, JBI-589 50 mg/kg po BID) is listed as “no adverse effect”.

For orientation: IC50 means the midpoint of a concentration-inhibition curve. What is called EC50 is the concentration giving half of the maximal effect. The term inhibition denotes the share of the control response that was lost under treatment.
